Literature values as cited in patent publication US7994325B2, “CGRP receptor antagonists” (Merck Sharp & Dohme Corp., priority 2005, dated 2011).
Ends that are not written are not given here.

Key:
CGRP receptors [1] = settings: intravenously administered (Olesen et al. 2004)
CGRP receptors [2] = settings: marmoset (Doods et al. 2000)
CGRP receptors [3] = settings: rat (Escott et al. 1995)
CGRP receptors [4] = settings: rats, prior administration (Williamson et al. 1997)

NCCCC[C@H](NC(=O)[C@@H](Cc1cc(Br)c(O)c(Br)c1)NC(=O)N1CCC(N2Cc3ccccc3NC2=O)CC1)C(=O)N1CCN(c2ccncc2)CC1 [BIBN4096BS]
clinical efficacy and safety in migraine (CGRP receptors [1]): safe and effective acute treatment for migraine
effect on increase in facial blood flow (CGRP receptors [2]): blocked

CGRP(8-37): "a fragment of CGRP that lacks seven N-terminal amino acid residues, is a selective antagonist of CGRP1"; "a peptide CGRP antagonist" (VTHRLAGLLSRSGGVVKNNFVPTNVGSKAF; ends and bridges not checked; UniProt P06881 90-119, looked up, fragment)
effect on increased facial blood flow (CGRP receptors [3]): inhibited
effect on increase in diameter of the middle meningeal artery (CGRP receptors [4]): blocked
